Experimental data taken from patent US8999970B2, “Administration of an anti-obesity compound to individuals with renal impairment” (Arena Pharmaceuticals, Inc., priority 2010, dated 2015).

Legend:
[1] = system: panel of receptors, ion channels and transporters; experiment: Pharmacological activity of metabolites at a panel of receptors, ion channels and transporters
[2] = Preclinical toxicology: M1 and M5 pharmacokinetics after oral administration of lorcaserin, 52 wk, mice
[3] = Clinical trial APD356-016: plasma and urine pharmacokinetics of lorcaserin, M1 and M5 after a 10 mg dose in subjects with renal impairment; details: for tmax: median; for Ae0-120 / fe0-120: urine
Protocol: The interaction of renal insufficiency with the pharmacokinetics, tolerability and safety of lorcaserin were evaluated in a formal PK study in subjects with renal impairment and in the populations studied in phase 2 and phase 3 clinical studies.
The pharmacokinetic properties of lorcaserin in subjects with varying degrees of renal impairment were evaluated in clinical trial APD356-016. At the time of study conduct and analysis, subjects were assigned to renal impairment groups based on creatinine clearance calculated using IDEAL body weight (Table 1). This calculation was used to avoid overestimation of creatinine clearance due to the excess body weight (overweight and obese subjects were enrolled in the trial). Summaries of pharmacokinetic properties by group assignment using creatinine clearance calculated using ACTUAL body weights are also provided in the sections that follow.
The FDA expects a reasonable margin between anticipated exposures and exposures that may produce toxicity. A reasonable margin can vary depending on the expected toxicity, but generally is an order of magnitude (10 times), but can sometimes be less for mild toxicity.
Table 13. Summary of Plasma Concentrations (ng/mL) of HSO3-APD356 Metabolite over Time by Group: Severe Renal Impairment Not Receiving Dialysis (see Table 13 next page)
Subject number 3140-505 was on dialysis and grouped in the end stage renal disease group.

[4] = lorcaserin 25 mg/kg/day oral, F
[5] = lorcaserin 25 mg/kg/day oral, M
[6] = lorcaserin 50 mg/kg/day oral, F
[7] = lorcaserin 50 mg/kg/day oral, M
[8] = 10 mg dose, Mild, actual BW groups
[9] = 10 mg dose, Mild, ideal BW groups
[10] = 10 mg dose, Moderate, actual BW groups
[11] = 10 mg dose, Moderate, ideal BW groups
[12] = 10 mg dose, Normal, actual BW groups
[13] = 10 mg dose, Normal, ideal BW groups
[14] = 10 mg dose, Severe N = 1, actual BW groups
[15] = 10 mg dose, Severe, ideal BW groups
[16] = ESRD, 10 mg QD Authentic, Day 1
[17] = Mild, 10 mg QD Authentic, Day 1
[18] = Moderate, 10 mg QD Authentic, Day 1
[19] = Normal, 10 mg QD Authentic, Day 1
[20] = Severe, 10 mg QD Authentic, Day 1

C[C@H]1CN(C(=O)O[C@@H]2O[C@H](C(=O)O)[C@@H](O)[C@H](O)[C@H]2O)CCc2ccc(Cl)cc21 [Compound M5, N-carbamoyl glucuronide of lorcaserin]
Activity at serotonin receptors or at a panel of more than 60 GPCRs, transporters and ion channels [1]: neither metabolite is active
Pharmacological activity at all receptors, transporters and ion channels tested to date [1]: pharmacologically inactive
AUC0-inf ([2]; lorcaserin 5 mg/kg/day oral, F): 201 ng·h/mL
AUClast ([2]; lorcaserin 5 mg/kg/day oral, F): 184 ng·h/mL
Cmax ([2]; lorcaserin 5 mg/kg/day oral, F): 100 ng/mL
tmax ([2]; lorcaserin 5 mg/kg/day oral, F): 0.5 h
AUC0-inf ([2]; lorcaserin 5 mg/kg/day oral, M): 178 ng·h/mL
AUClast ([2]; lorcaserin 5 mg/kg/day oral, M): 134 ng·h/mL
Cmax ([2]; lorcaserin 5 mg/kg/day oral, M): 98.3 ng/mL
tmax ([2]; lorcaserin 5 mg/kg/day oral, M): 0.5 h
AUClast [2, 4]: 1210 ng·h/mL
Cmax [2, 4]: 431 ng/mL
tmax [2, 4]: 0.5 h
AUClast [2, 5]: 1840 ng·h/mL
Cmax [2, 5]: 590 ng/mL
tmax [2, 5]: 0.5 h
AUC0-inf [2, 6]: 3260 ng·h/mL
AUClast [2, 6]: 3230 ng·h/mL
Cmax [2, 6]: 824 ng/mL
tmax [2, 6]: 0.5 h
AUC0-inf [2, 7]: 3470 ng·h/mL
AUClast [2, 7]: 3420 ng·h/mL
Cmax [2, 7]: 1000 ng/mL
tmax [2, 7]: 0.5 h
% AUC Extrapolated ([3]; 10 mg dose, ESRD (Period 1)): 14.7%
AUC0-inf ([3]; 10 mg dose, ESRD (Period 1)): 11200 ng·h/mL
AUC(0-t) ([3]; 10 mg dose, ESRD (Period 1)): 9530 ng·h/mL
AUClast ([3]; 10 mg dose, ESRD (Period 1)): 9530 ng·h/mL
Cmax ([3]; 10 mg dose, ESRD (Period 1)): 300 ng/mL
MRTinf ([3]; 10 mg dose, ESRD (Period 1)): 38.6 h
t1/2z ([3]; 10 mg dose, ESRD (Period 1)): 25.7 h
tmax ([3]; 10 mg dose, ESRD (Period 1)): 3.00 h
% AUC Extrapolated ([3]; 10 mg dose, ESRD (Period 2)): 26.9%
AUC0-inf ([3]; 10 mg dose, ESRD (Period 2)): 11900 ng·h/mL
AUC(0-t) ([3]; 10 mg dose, ESRD (Period 2)): 8240 ng·h/mL
AUClast ([3]; 10 mg dose, ESRD (Period 2)): 8240 ng·h/mL
Cmax ([3]; 10 mg dose, ESRD (Period 2)): 231 ng/mL
MRTinf ([3]; 10 mg dose, ESRD (Period 2)): 59.1 h
t1/2z ([3]; 10 mg dose, ESRD (Period 2)): 40.5 h
tmax ([3]; 10 mg dose, ESRD (Period 2)): 3.10 h
% AUC0-inf Extrapolated [3, 8]: 14.5%
AUC0-inf [3, 8]: 1040 ng·h/mL
AUClast [3, 8]: 914 ng·h/mL
Cmax [3, 8]: 91.9 ng/mL
MRTinf [3, 8]: 16.6 h
T1/2z [3, 8]: 13.5 h
tmax [3, 8]: 2 h
% AUC0-inf Extrapolated [3, 9]: 17.7%
AUC0-inf [3, 9]: 583 ng·h/mL
AUC(0-t) [3, 9]: 482 ng·h/mL
Cmax [3, 9]: 62.4 ng/mL
MRTinf [3, 9]: 13.5 h
T1/2z [3, 9]: 10.7 h
tmax [3, 9]: 2.00 h
% AUC0-inf Extrapolated [3, 10]: 12.1%
AUC0-inf [3, 10]: 1700 ng·h/mL
AUClast [3, 10]: 1510 ng·h/mL
Cmax [3, 10]: 134 ng/mL
MRTinf [3, 10]: 18.5 h
T1/2z [3, 10]: 14.4 h
tmax [3, 10]: 2 h
% AUC0-inf Extrapolated [3, 11]: 15.6%
AUC0-inf [3, 11]: 1100 ng·h/mL
AUC(0-t) [3, 11]: 944 ng·h/mL
Cmax [3, 11]: 96.4 ng/mL
MRTinf [3, 11]: 18.5 h
T1/2z [3, 11]: 15.4 h
tmax [3, 11]: 2.00 h
% AUC0-inf Extrapolated [3, 12]: 23.1%
AUC0-inf [3, 12]: 498 ng·h/mL
AUClast [3, 12]: 381 ng·h/mL
Cmax [3, 12]: 66.2 ng/mL
MRTinf [3, 12]: 14.2 h
T1/2z [3, 12]: 11.7 h
tmax [3, 12]: 2 h
% AUC0-inf Extrapolated [3, 13]: 26.3%
AUC0-inf [3, 13]: 475 ng·h/mL
AUC(0-t) [3, 13]: 345 ng·h/mL
Cmax [3, 13]: 70.5 ng/mL
MRTinf [3, 13]: 14.6 h
T1/2z [3, 13]: 12.2 h
tmax [3, 13]: 1.00 h
% AUC0-inf Extrapolated [3, 14]: 2.59%
AUC0-inf [3, 14]: 6480 ng·h/mL
AUClast [3, 14]: 6310 ng·h/mL
Cmax [3, 14]: 214 ng/mL
MRTinf [3, 14]: 33.4 h
T1/2z [3, 14]: 23.1 h
tmax [3, 14]: 4 h
% AUC0-inf Extrapolated [3, 15]: 8.46%
AUC0-inf [3, 15]: 2470 ng·h/mL
AUC(0-t) [3, 15]: 2290 ng·h/mL
Cmax [3, 15]: 153 ng/mL
MRTinf [3, 15]: 20.0 h
T1/2z [3, 15]: 14.9 h
tmax [3, 15]: 2.50 h
Ae0-120 [3, 8]: 7470 µg
fe0-120 [3, 8]: 0.417
Ae0-120 [3, 9]: 7160 µg
fe0-120 [3, 9]: 0.399
Ae0-120 [3, 10]: 6480 µg
fe0-120 [3, 10]: 0.361
Ae0-120 [3, 11]: 8000 µg
fe0-120 [3, 11]: 0.446
Ae0-120 [3, 12]: 8210 µg
fe0-120 [3, 12]: 0.458
Ae0-120 [3, 13]: 8540 µg
fe0-120 [3, 13]: 0.476
Ae0-120 [3, 14]: 6720 µg
fe0-120 [3, 14]: 0.375
Ae0-120 [3, 15]: 6300 µg
fe0-120 [3, 15]: 0.351
Amount in the body cleared during a standard 4-hour hemodialysis procedure ([3]; ESRD): Approximately 18%
Hemodialysis extraction ratio ([3]; ESRD): 18.4%
Removal by hemodialysis ([3]; ESRD): partially removed
AUC24 hr [3, 16]: 9530 ng·h/mL
Cmax [3, 16]: 300 ng/mL
t1/2 [3, 16]: 25.7 h
AUC24 hr [3, 17]: 482 ng·h/mL
Cmax [3, 17]: 62.4 ng/mL
t1/2 [3, 17]: 10.7 h
AUC24 hr [3, 18]: 944 ng·h/mL
Cmax [3, 18]: 96.4 ng/mL
t1/2 [3, 18]: 15.4 h
AUC24 hr [3, 19]: 345 ng·h/mL
Cmax [3, 19]: 70.5 ng/mL
t1/2 [3, 19]: 12.2 h
AUC24 hr [3, 20]: 2290 ng·h/mL
Cmax [3, 20]: 153 ng/mL
t1/2 [3, 20]: 14.9 h
Exposure (Geometric Mean Ratio for AUCinf) increase compared to normal subjects ([3]; mild (CLcr=51-80 mL/min)): 1.2 fold
Terminal half-life prolonged by ([3]; mild renal impairment): 0%
Exposure (Geometric Mean Ratio for AUCinf) increase compared to normal subjects ([3]; moderate (CLcr=31-50 mL/min)): 2.3 fold
Terminal half-life prolonged by ([3]; moderate renal impairment): 26%
Fractional excretion ([3]; normal renal function): 48%
Exposure (Geometric Mean Ratio for AUCinf) increase compared to normal subjects ([3]; severe (CLcr=5-30 mL/min)): 5.2 fold
Fractional excretion ([3]; severe renal impairment): 35%
Terminal half-life prolonged by ([3]; severe renal impairment): 22%
Highest individual AUC0-inf in a subject not on hemodialysis ([3]; subject 3140-010, creatinine clearance 9.9 mL/min): 6480 ng·h/mL
Highest observed Cmax in the clinical study ([3]; subject with ESRD (#3140-505)): 520 ng/mL
Highest AUC0-inf overall ([3]; subject with ESRD on hemodialysis): 20800 ng·h/mL
